# From patent US4782160A, “1,4-dihydropyridine derivatives” (Yamanouchi Pharmaceutical Co., Ltd., priority 1986, dated 1988)
# pKi: −log10 of the molar value.
# Key:
# [1] = target: [^3 H]-Nitrendipine-labeled calcium channels; experiment: [3H]-nitrendipine binding assay in rat brain membranes (Ca2+-antagonistic activity); conditions: mean of 3 experiments, 95% confidence limits in parenthesis on next line
# Experimental: 1. Ca^2+ -Antagonistic activity:
# Ca^2+ -Antagonistic activity of the compound was evaluated in [^3 H]-nitrendipine ([^3 H]-NIT) binding assay.
# [2] = Acute toxicity in mice, intravenous (Up and Down Method); conditions: mouse, in vivo, i.v., ICR-SLC mice, n=10
# Experimental: Acute toxicity of the test compound was evaluated according to the method of Brownlee, Hodges and Rosenblatt (The Up and Down Method with Small Samples. J. Am. Stat. As., 48, 262-277, 1953). The […] value of the test compound after intravenous injection to ICR-SLC mice was obtained (Table 3).
# [3] = tested on: conscious normotensive rats; experiment: Hypotensive activity: blood pressure and heart rate in conscious normotensive rats after oral administration; format: in vivo, rat
# Experimental: The effect of the compound on arterial blood pressure (systolic, SBP mean, MBP diastolic, DBP) and heart rate (HR) was evaluated in conscious normotensive rats (NTR). Four to six days before the experiments, a polyethylene catheter for recording arterial blood pressure was surgically implanted into the thoracic aorta via the carotid artery under ether anesthesia. Arterial blood pressure and heart rate were recorded under freely moving conditions. The test compounds were suspended in 0.5% methylcellulose solution and administered by oral gavage.
# Table 2 summarizes the changes in HR, SBP, MBP and DBP of conscious NTR after oral administration of the test compounds.
# [4] = based on calcium antagonistic activity; cited from earlier work
smiles,measurement,setting,value
"COC(=O)C1=C(C)NC(C)=C(C(=O)OC)C1c1cc([N+](=O)[O-])ccc1OCCCCNCCCOc1ccccc1 [Example 1, dimethyl 4-[2-[4-(3-phenoxypropylamino)butoxy]-5-nitrophenyl]-2,6-dimethyl-1,4-dihydropyridine-3,5-dicarboxylate]",pKi,[1],7.12
same,LD50,[2],29 mg/kg
same,DBP Change (Δ),"[3]; 30 mg/kg p.o., 1 hr, n=6, initial 103 ± 3.6",-13.0 mmHg
same,MBP Change (Δ),"[3]; 30 mg/kg p.o., 1 hr, n=6, initial 114 ± 3.6",-12.1 mmHg
same,SBP Change (Δ),"[3]; 30 mg/kg p.o., 1 hr, n=6, initial 137 ± 3.7",-10.2 mmHg
same,HR Change (Δ),"[3]; 30 mg/kg p.o., 1 hr, n=6, initial 361 ± 7.7",43.0 beats/min
same,DBP Change (Δ),"[3]; 30 mg/kg p.o., 2 hr, n=6, initial 103 ± 3.6",-21.3 mmHg
same,MBP Change (Δ),"[3]; 30 mg/kg p.o., 2 hr, n=6, initial 114 ± 3.6",-20.0 mmHg
same,SBP Change (Δ),"[3]; 30 mg/kg p.o., 2 hr, n=6, initial 137 ± 3.7",-17.2 mmHg
same,HR Change (Δ),"[3]; 30 mg/kg p.o., 2 hr, n=6, initial 361 ± 7.7",77.8 beats/min
same,DBP Change (Δ),"[3]; 30 mg/kg p.o., 3 hr, n=6, initial 103 ± 3.6",-25.5 mmHg
same,MBP Change (Δ),"[3]; 30 mg/kg p.o., 3 hr, n=6, initial 114 ± 3.6",-25.1 mmHg
same,SBP Change (Δ),"[3]; 30 mg/kg p.o., 3 hr, n=6, initial 137 ± 3.7",-24.3 mmHg
same,HR Change (Δ),"[3]; 30 mg/kg p.o., 3 hr, n=6, initial 361 ± 7.7",62.2 beats/min
same,DBP Change (Δ),"[3]; 30 mg/kg p.o., 4 hr, n=6, initial 103 ± 3.6",-19.0 mmHg
same,MBP Change (Δ),"[3]; 30 mg/kg p.o., 4 hr, n=6, initial 114 ± 3.6",-18.9 mmHg
same,SBP Change (Δ),"[3]; 30 mg/kg p.o., 4 hr, n=6, initial 137 ± 3.7",-18.7 mmHg
same,HR Change (Δ),"[3]; 30 mg/kg p.o., 4 hr, n=6, initial 361 ± 7.7",55.0 beats/min
same,DBP Change (Δ),"[3]; 30 mg/kg p.o., 5 hr, n=6, initial 103 ± 3.6",-16.7 mmHg
same,MBP Change (Δ),"[3]; 30 mg/kg p.o., 5 hr, n=6, initial 114 ± 3.6",-16.5 mmHg
same,SBP Change (Δ),"[3]; 30 mg/kg p.o., 5 hr, n=6, initial 137 ± 3.7",-16.2 mmHg
same,HR Change (Δ),"[3]; 30 mg/kg p.o., 5 hr, n=6, initial 361 ± 7.7",55.3 beats/min
same,DBP Change (Δ),"[3]; 30 mg/kg p.o., 6 hr, n=6, initial 103 ± 3.6",-13.2 mmHg
same,MBP Change (Δ),"[3]; 30 mg/kg p.o., 6 hr, n=6, initial 114 ± 3.6",-14.4 mmHg
same,SBP Change (Δ),"[3]; 30 mg/kg p.o., 6 hr, n=6, initial 137 ± 3.7",-16.8 mmHg
same,HR Change (Δ),"[3]; 30 mg/kg p.o., 6 hr, n=6, initial 361 ± 7.7",30.5 beats/min
same,DBP Change (Δ),"[3]; 30 mg/kg p.o., 8 hr, n=6, initial 103 ± 3.6",-12.5 mmHg
same,MBP Change (Δ),"[3]; 30 mg/kg p.o., 8 hr, n=6, initial 114 ± 3.6",-13.5 mmHg
same,SBP Change (Δ),"[3]; 30 mg/kg p.o., 8 hr, n=6, initial 137 ± 3.7",-15.3 mmHg
same,HR Change (Δ),"[3]; 30 mg/kg p.o., 8 hr, n=6, initial 361 ± 7.7",33.0 beats/min
same,DBP Change (Δ),"[3]; 30 mg/kg p.o., 10 hr, n=6, initial 103 ± 3.6",-12.3 mmHg
same,MBP Change (Δ),"[3]; 30 mg/kg p.o., 10 hr, n=6, initial 114 ± 3.6",-13.1 mmHg
same,SBP Change (Δ),"[3]; 30 mg/kg p.o., 10 hr, n=6, initial 137 ± 3.7",-14.7 mmHg
same,HR Change (Δ),"[3]; 30 mg/kg p.o., 10 hr, n=6, initial 361 ± 7.7",22.5 beats/min
same,DBP Change (Δ),"[3]; 30 mg/kg p.o., 24 hr, n=6, initial 103 ± 3.6",0.7 mmHg
same,MBP Change (Δ),"[3]; 30 mg/kg p.o., 24 hr, n=6, initial 114 ± 3.6",0.7 mmHg
same,SBP Change (Δ),"[3]; 30 mg/kg p.o., 24 hr, n=6, initial 137 ± 3.7",0.7 mmHg
same,HR Change (Δ),"[3]; 30 mg/kg p.o., 24 hr, n=6, initial 361 ± 7.7",28.0 beats/min
COC(=O)C1=C(C)NC(C)=C(C(=O)OCCN(C)Cc2ccccc2)C1c1cccc([N+](=O)[O-])c1 (centres unmarked) [Nicardipine],cerebro- and/or coronary vasodilating action,[4],exhibits cerebro- and/or coronary vasodilating action
"COC(=O)C1=C(C)NC(C)=C(C(=O)OC)C1c1ccccc1[N+](=O)[O-] [Nifedipine, reference compound]",cerebro- and/or coronary vasodilating action,[4],exhibits cerebro- and/or coronary vasodilating action
same,DBP Change (Δ),"[3]; 3 mg/kg p.o., 0.25 hr, n=8, initial 97 ± 1.8",-20.9 mmHg
same,MBP Change (Δ),"[3]; 3 mg/kg p.o., 0.25 hr, n=8, initial 110 ± 1.8",-18.7 mmHg
same,SBP Change (Δ),"[3]; 3 mg/kg p.o., 0.25 hr, n=8, initial 136 ± 2.2",-14.4 mmHg
same,HR Change (Δ),"[3]; 3 mg/kg p.o., 0.25 hr, n=8, initial 349 ± 6.9",77.4 beats/min
same,DBP Change (Δ),"[3]; 3 mg/kg p.o., 0.5 hr, n=8, initial 97 ± 1.8",-19.9 mmHg
same,MBP Change (Δ),"[3]; 3 mg/kg p.o., 0.5 hr, n=8, initial 110 ± 1.8",-19.1 mmHg
same,SBP Change (Δ),"[3]; 3 mg/kg p.o., 0.5 hr, n=8, initial 136 ± 2.2",-17.6 mmHg
same,HR Change (Δ),"[3]; 3 mg/kg p.o., 0.5 hr, n=8, initial 349 ± 6.9",51.6 beats/min
same,DBP Change (Δ),"[3]; 3 mg/kg p.o., 0.75 hr, n=8, initial 97 ± 1.8",-20.1 mmHg
same,MBP Change (Δ),"[3]; 3 mg/kg p.o., 0.75 hr, n=8, initial 110 ± 1.8",-19.5 mmHg
same,SBP Change (Δ),"[3]; 3 mg/kg p.o., 0.75 hr, n=8, initial 136 ± 2.2",-18.1 mmHg
same,HR Change (Δ),"[3]; 3 mg/kg p.o., 0.75 hr, n=8, initial 349 ± 6.9",35.4 beats/min
same,DBP Change (Δ),"[3]; 3 mg/kg p.o., 1 hr, n=8, initial 97 ± 1.8",-18.9 mmHg
same,SBP Change (Δ),"[3]; 3 mg/kg p.o., 1 hr, n=8, initial 136 ± 2.2",-17.0 mmHg
same,HR Change (Δ),"[3]; 3 mg/kg p.o., 1 hr, n=8, initial 349 ± 6.9",23.0 beats/min
same,DBP Change (Δ),"[3]; 3 mg/kg p.o., 1.5 hr, n=8, initial 97 ± 1.8",-11.8 mmHg
same,MBP Change (Δ),"[3]; 3 mg/kg p.o., 1.5 hr, n=8, initial 110 ± 1.8",-11.5 mmHg
same,SBP Change (Δ),"[3]; 3 mg/kg p.o., 1.5 hr, n=8, initial 136 ± 2.2",-11.0 mmHg
same,HR Change (Δ),"[3]; 3 mg/kg p.o., 1.5 hr, n=8, initial 349 ± 6.9",12.9 beats/min
same,DBP Change (Δ),"[3]; 3 mg/kg p.o., 2 hr, n=8, initial 97 ± 1.8",-9.4 mmHg
same,MBP Change (Δ),"[3]; 3 mg/kg p.o., 2 hr, n=8, initial 110 ± 1.8",-9.7 mmHg
same,SBP Change (Δ),"[3]; 3 mg/kg p.o., 2 hr, n=8, initial 136 ± 2.2",-10.4 mmHg
same,HR Change (Δ),"[3]; 3 mg/kg p.o., 2 hr, n=8, initial 349 ± 6.9",2.3 beats/min
same,DBP Change (Δ),"[3]; 3 mg/kg p.o., 3 hr, n=8, initial 97 ± 1.8",-2.6 mmHg
same,MBP Change (Δ),"[3]; 3 mg/kg p.o., 3 hr, n=8, initial 110 ± 1.8",-3.5 mmHg
same,SBP Change (Δ),"[3]; 3 mg/kg p.o., 3 hr, n=8, initial 136 ± 2.2",-5.4 mmHg
same,HR Change (Δ),"[3]; 3 mg/kg p.o., 3 hr, n=8, initial 349 ± 6.9",-20.3 beats/min
same,DBP Change (Δ),"[3]; 3 mg/kg p.o., 4 hr, n=8, initial 97 ± 1.8",0.9 mmHg
same,MBP Change (Δ),"[3]; 3 mg/kg p.o., 4 hr, n=8, initial 110 ± 1.8",0.5 mmHg
same,SBP Change (Δ),"[3]; 3 mg/kg p.o., 4 hr, n=8, initial 136 ± 2.2",-0.3 mmHg
same,HR Change (Δ),"[3]; 3 mg/kg p.o., 4 hr, n=8, initial 349 ± 6.9",-13.4 beats/min
